pKd: −log10 of the molar value. Activity calls are given as the source filed them.
Assays:
[1] = target: T1, Exosome RNA helicase MTR4 (Homo sapiens, UniProt P42285)
T1 sequence (P42285 whole entry): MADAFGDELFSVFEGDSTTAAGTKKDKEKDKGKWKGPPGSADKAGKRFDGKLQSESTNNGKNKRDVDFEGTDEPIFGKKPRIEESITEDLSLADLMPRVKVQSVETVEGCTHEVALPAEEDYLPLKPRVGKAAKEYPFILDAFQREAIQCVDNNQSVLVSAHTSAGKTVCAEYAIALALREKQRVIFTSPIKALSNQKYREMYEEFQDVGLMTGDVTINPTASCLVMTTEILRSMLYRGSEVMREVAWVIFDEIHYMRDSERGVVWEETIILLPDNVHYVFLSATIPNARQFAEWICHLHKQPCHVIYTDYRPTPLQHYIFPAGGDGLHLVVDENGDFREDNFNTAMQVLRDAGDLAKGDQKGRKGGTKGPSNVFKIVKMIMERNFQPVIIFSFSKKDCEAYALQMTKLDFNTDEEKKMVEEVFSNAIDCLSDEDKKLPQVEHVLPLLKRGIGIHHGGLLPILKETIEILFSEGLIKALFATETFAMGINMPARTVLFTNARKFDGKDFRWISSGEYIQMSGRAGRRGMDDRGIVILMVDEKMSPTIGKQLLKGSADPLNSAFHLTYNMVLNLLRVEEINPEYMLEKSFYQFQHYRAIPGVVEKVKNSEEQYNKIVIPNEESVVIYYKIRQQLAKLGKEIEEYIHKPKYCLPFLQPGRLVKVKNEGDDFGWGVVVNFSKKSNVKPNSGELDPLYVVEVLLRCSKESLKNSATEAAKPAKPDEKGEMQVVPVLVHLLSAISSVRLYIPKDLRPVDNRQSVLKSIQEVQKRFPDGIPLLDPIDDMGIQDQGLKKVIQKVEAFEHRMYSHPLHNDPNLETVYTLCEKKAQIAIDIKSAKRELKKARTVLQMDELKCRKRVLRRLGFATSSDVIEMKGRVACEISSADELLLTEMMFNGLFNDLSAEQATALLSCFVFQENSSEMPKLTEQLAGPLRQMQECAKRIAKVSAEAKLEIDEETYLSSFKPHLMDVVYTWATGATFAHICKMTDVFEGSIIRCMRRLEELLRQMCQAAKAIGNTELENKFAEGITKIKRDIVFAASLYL

[2] = target: Serine/threonine-protein kinase/endoribonuclease IRE2 (Homo sapiens, UniProt Q76MJ5)
[3] = target: T2, Serine/threonine-protein kinase LATS1 (Homo sapiens, UniProt O95835)
T2 sequence (O95835 whole entry): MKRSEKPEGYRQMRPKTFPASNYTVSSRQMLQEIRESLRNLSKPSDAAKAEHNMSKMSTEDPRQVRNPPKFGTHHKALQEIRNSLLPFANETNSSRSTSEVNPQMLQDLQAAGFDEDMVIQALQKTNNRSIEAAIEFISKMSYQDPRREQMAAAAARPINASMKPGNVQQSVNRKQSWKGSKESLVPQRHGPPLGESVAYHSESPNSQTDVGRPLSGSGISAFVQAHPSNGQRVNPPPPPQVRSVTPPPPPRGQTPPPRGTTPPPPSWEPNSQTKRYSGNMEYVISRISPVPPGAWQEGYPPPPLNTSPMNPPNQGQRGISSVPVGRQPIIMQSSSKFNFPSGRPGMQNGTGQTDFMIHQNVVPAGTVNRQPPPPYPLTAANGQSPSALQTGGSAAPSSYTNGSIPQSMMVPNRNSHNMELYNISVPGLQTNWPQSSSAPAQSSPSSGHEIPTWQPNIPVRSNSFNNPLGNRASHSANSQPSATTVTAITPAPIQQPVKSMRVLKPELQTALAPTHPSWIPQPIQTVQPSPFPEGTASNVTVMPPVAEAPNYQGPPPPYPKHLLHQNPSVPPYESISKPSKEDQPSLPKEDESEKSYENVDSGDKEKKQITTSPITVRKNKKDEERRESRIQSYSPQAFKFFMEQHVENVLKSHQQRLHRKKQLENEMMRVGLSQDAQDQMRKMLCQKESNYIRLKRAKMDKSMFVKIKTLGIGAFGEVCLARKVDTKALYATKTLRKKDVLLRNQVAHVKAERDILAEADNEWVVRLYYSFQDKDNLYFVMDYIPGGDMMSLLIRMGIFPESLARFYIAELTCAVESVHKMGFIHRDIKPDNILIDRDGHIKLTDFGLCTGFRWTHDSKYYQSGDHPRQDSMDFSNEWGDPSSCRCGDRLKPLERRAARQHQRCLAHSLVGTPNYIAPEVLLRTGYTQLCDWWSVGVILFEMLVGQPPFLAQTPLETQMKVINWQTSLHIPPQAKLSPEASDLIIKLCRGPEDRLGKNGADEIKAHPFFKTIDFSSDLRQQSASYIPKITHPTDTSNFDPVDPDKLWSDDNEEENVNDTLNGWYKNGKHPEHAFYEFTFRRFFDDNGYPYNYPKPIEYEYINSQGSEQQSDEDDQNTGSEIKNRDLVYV

Actin-related protein 2 = Actin-related protein 2 (Homo sapiens, UniProt P61160)
[4] = target: T3, Beta-adrenergic receptor kinase 1 (Homo sapiens, UniProt P25098)
T3 sequence (P25098 whole entry): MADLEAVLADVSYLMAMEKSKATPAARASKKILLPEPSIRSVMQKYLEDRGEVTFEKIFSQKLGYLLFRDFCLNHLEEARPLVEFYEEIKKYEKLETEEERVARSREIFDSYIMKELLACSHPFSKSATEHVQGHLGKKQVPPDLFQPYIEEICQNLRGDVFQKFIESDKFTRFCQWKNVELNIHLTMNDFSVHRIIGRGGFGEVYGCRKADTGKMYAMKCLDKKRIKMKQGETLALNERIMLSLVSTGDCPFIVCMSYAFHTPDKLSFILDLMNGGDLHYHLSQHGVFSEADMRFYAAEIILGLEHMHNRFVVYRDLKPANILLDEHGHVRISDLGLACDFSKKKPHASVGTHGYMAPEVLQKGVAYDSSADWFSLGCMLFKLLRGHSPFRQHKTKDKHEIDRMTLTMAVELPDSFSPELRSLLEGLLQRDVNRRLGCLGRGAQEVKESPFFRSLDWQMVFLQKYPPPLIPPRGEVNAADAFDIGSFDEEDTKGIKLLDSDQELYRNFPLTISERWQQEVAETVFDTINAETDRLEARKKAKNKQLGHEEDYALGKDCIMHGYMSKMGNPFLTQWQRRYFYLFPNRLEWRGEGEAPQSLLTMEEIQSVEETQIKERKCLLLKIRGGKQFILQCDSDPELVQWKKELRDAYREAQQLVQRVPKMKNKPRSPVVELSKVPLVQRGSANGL
Note: in the data inactive means no Kd found up to 30 µM.

Sequence of Serine/threonine-protein kinase/endoribonuclease IRE2 (Q76MJ5 whole entry): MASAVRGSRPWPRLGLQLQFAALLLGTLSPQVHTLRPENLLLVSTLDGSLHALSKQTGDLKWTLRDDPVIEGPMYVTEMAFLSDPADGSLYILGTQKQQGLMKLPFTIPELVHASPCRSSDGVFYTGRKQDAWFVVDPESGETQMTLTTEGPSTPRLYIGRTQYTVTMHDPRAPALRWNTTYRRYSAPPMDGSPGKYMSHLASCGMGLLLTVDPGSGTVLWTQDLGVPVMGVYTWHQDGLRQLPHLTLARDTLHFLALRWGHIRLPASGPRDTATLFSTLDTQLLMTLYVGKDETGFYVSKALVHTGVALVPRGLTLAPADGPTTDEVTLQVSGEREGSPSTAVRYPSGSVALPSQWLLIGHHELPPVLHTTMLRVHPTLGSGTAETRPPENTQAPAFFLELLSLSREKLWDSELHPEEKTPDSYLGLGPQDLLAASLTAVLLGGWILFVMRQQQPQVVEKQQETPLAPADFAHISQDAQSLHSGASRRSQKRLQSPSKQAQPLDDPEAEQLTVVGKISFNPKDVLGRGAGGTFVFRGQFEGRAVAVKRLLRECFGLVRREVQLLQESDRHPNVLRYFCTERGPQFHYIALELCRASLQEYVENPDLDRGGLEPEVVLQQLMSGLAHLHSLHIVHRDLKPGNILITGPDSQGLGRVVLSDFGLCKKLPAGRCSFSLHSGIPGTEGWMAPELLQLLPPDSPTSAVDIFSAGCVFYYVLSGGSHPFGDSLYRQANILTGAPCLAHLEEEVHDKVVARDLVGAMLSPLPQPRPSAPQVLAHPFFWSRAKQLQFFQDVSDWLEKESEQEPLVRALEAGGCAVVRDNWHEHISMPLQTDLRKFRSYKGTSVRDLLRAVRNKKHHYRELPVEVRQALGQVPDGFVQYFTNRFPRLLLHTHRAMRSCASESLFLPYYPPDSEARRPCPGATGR

Row | SMILES | Kd [1] | Kd [2] | Kd [3] | Kd (Actin-related protein 2) | Kd [4] | pKd [1]
1 | COc1cc2nccc(Oc3ccc(NC(=O)C4(C(=O)Nc5ccc(F)cc5)CC4)cc3)c2cc1OC [CABOZANTINIB] | > 30 µM (inactive) | > 30 µM (inactive) | > 30 µM (inactive) | > 30 µM (inactive) | > 30 µM (inactive) | –
2 | O=C(Nc1ccc(OC(F)(F)F)cc1)c1sccc1NCc1ccnc2ccccc12 [OSI-930] | > 30 µM (inactive) | > 30 µM (inactive) | > 30 µM (inactive) | > 30 µM (inactive) | > 30 µM (inactive) | –
3 | Cc1cc(Nc2nc(N[C@@H](C)c3ncc(F)cn3)ncc2Cl)n[nH]1 [AZD-1480] | > 30 µM (inactive) | > 30 µM (inactive) | > 30 µM (inactive) | > 30 µM (inactive) | > 30 µM (inactive) | –
4 | COc1cccc(Nc2ncnn3ccc(CN4CC[C@@H](N)[C@H](O)C4)c23)c1 [BMS-690514] | > 30 µM (inactive) | > 30 µM (inactive) | > 30 µM (inactive) | > 30 µM (inactive) | > 30 µM (inactive) | –
5 | COc1cc2ncnc3c2cc1OCCCCCN(C)Cc1ccc(Br)cc1N3 [JNJ-26483327] | > 30 µM (inactive) | > 30 µM (inactive) | > 30 µM (inactive) | – | > 30 µM (inactive) | –
6 | CCc1cc2c(cc1N1CCC(N3CCOCC3)CC1)C(C)(C)c1[nH]c3cc(C#N)ccc3c1C2=O [ALECTINIB] | > 30 µM (inactive) | > 30 µM (inactive) | > 30 µM (inactive) | > 30 µM (inactive) | > 30 µM (inactive) | –
7 | CN(c1ncccc1CNc1nc(Nc2ccc3c(c2)CC(=O)N3)ncc1C(F)(F)F)S(C)(=O)=O [PF-00562271] | > 30 µM (inactive) | > 30 µM (inactive) | > 30 µM (inactive) | > 30 µM (inactive) | > 30 µM (inactive) | –
8 | COc1cc2c(Oc3ccc4[nH]c(C)cc4c3F)ncnc2cc1OCCCN1CCCC1 [CEDIRANIB] | – | > 30 µM (inactive) | – | > 30 µM (inactive) | > 30 µM (inactive) | 5.58
9 | CC[C@@](C)(Nc1ccnc(-c2c[nH]c3ncccc23)n1)C(=O)NCC(F)(F)F [DECERNOTINIB] | > 30 µM (inactive) | > 30 µM (inactive) | > 30 µM (inactive) | – | > 30 µM (inactive) | –
10 | O=C(NOC[C@H](O)CO)c1ccc(F)c(F)c1Nc1ccc(I)cc1F [MIRDAMETINIB] | > 30 µM (inactive) | > 30 µM (inactive) | – | > 30 µM (inactive) | > 30 µM (inactive) | –
11 | N#CCNC(=O)c1ccc(-c2ccnc(Nc3ccc(N4CCOCC4)cc3)n2)cc1 [MOMELOTINIB] | > 30 µM (inactive) | > 30 µM (inactive) | – | > 30 µM (inactive) | > 30 µM (inactive) | –
12 | CC1(C)CNc2cc(NC(=O)c3cccnc3NCc3ccncc3)ccc21 [MOTESANIB] | > 30 µM (inactive) | > 30 µM (inactive) | – | > 30 µM (inactive) | > 30 µM (inactive) | –
13 | NC[C@@](O)(c1ccc(Cl)cc1)c1ccc(-c2cn[nH]c2)cc1 [AT-13148] | > 30 µM (inactive) | – | 0.027 µM (active) | > 30 µM (inactive) | 0.17 µM (active) | –
14 | C=CCN(/C=C1/C(=O)O[C@H](COC)[C@@]2(C)C1=C(O)C(=O)C1=C2[C@H](OC(C)=O)C[C@]2(C)C(=O)CC[C@@H]12)CC=C [SONOLISIB] | > 30 µM (inactive) | > 30 µM (inactive) | > 30 µM (inactive) | – | > 30 µM (inactive) | –
15 | CNC(=O)c1ccc(Nc2ncc(C(F)(F)F)c(NCc3nccnc3N(C)S(C)(=O)=O)n2)cc1 [DEFACTINIB] | > 30 µM (inactive) | > 30 µM (inactive) | 9.05 µM (active) | – | > 30 µM (inactive) | –
16 | CCOc1ccn(-c2ccc(F)cc2)c(=O)c1C(=O)Nc1ccc(Oc2ccnc(N)c2Cl)c(F)c1 [BMS-777607] | > 30 µM (inactive) | > 30 µM (inactive) | > 30 µM (inactive) | – | > 30 µM (inactive) | –
17 | CN(C)C/C=C/C(=O)Nc1cc2c(Nc3ccc(F)c(Cl)c3)ncnc2cc1O[C@H]1CCOC1 [AFATINIB] | > 30 µM (inactive) | > 30 µM (inactive) | – | > 30 µM (inactive) | > 30 µM (inactive) | –
18 | COc1cc(F)c(F)c(Nc2ccc(I)cc2F)c1NS(=O)(=O)C1(C[C@H](O)CO)CC1 [REFAMETINIB] | > 30 µM (inactive) | > 30 µM (inactive) | > 30 µM (inactive) | – | > 30 µM (inactive) | –
19 | Cn1cnc2c(F)c(Nc3ccc(Br)cc3Cl)c(C(=O)NOCCO)cc21 [SELUMETINIB] | > 30 µM (inactive) | > 30 µM (inactive) | – | > 30 µM (inactive) | > 30 µM (inactive) | –
20 | Cn1c(=O)n(-c2ccc(C(C)(C)C#N)cc2)c2c3cc(-c4cnc5ccccc5c4)ccc3ncc21 [DACTOLISIB] | > 30 µM (inactive) | > 30 µM (inactive) | – | > 30 µM (inactive) | > 30 µM (inactive) | –
21 | COc1cc2c(N3CCN(C(=O)Nc4ccc(OC(C)C)cc4)CC3)ncnc2cc1OCCCN1CCCCC1 [TANDUTINIB] | > 30 µM (inactive) | > 30 µM (inactive) | – | > 30 µM (inactive) | > 30 µM (inactive) | –
22 | O=S(=O)(c1cccc2cnccc12)N1CCCNCC1 [FASUDIL] | > 30 µM (inactive) | > 30 µM (inactive) | – | > 30 µM (inactive) | > 30 µM (inactive) | –
23 | C[C@@]1(C(=O)Nc2ccc(F)nc2)CCCN1c1nc(Nc2cc(C3CC3)n[nH]2)c2cccn2n1 [BMS-754807] | > 30 µM (inactive) | – | – | > 30 µM (inactive) | – | –
24 | C[C@]1(O)C[C@@H](c2nc(-c3ccc4ccc(-c5ccccc5)nc4c3)c3c(N)nccn32)C1 [LINSITINIB] | > 30 µM (inactive) | > 30 µM (inactive) | – | > 30 µM (inactive) | > 30 µM (inactive) | –
